{
  "source": "patent US20220143081A1",
  "about": "“SYSTEM AND METHOD OF TREATING INFLAMMATORY LUNG DISEASES” (priority 2020, published 2022)",
  "key": {"[1]": {"tested_on": "SARS-CoV-2", "format": "cell-based", "conditions": "commercially available nasal spray tested at 5-fold dilution"}, "[2]": {"tested_on": "SARS-CoV-2", "format": "cell-based"}, "[3]": {"tested_on": "monocytes, macrophages and lymphocytes", "assay": "In vitro experiments in monocytes, macrophages and lymphocytes", "format": "cell-based"}, "[4]": {"tested_on": "PBMCs isolated from normal donors", "assay": "Gene expression in PBMCs by quantitative RT-PCR (Light Cycler System)", "format": "cell-based, human"}, "[5]": {"assay": "Humoral and cellular immunity (Jerne plaque and footpad swelling tests)", "format": "in vivo"}, "[6]": {"assay": "Human wound healing model (skin blister)", "format": "in vivo"}, "[7]": {"tested_on": "HIV", "format": "cell-based", "conditions": "in vitro"}, "[8]": {"assay": "Blood cell effects in rats, including total body X-irradiation", "format": "in vivo"}, "[9]": {"tested_on": "radiation-induced, chemical-induced and metastatic malignant and benign tumors", "assay": "Antitumor effects against induced and metastatic tumors", "format": "in vivo"}},
  "data": [
    {"substance": "tetrachlorodecaoxide [TCDO]", "values": [
      {"measurement": "inhibition of viral propagation", "setting": "[1]", "value": "highly potent"},
      {"measurement": "cytopathic effect and SARS-CoV-2 infection of Vero E6 cells", "setting": "[2]", "value": "significantly reduced"},
      {"measurement": "antigen presentation", "setting": "[3]", "value": "decrease antigen presentation"},
      {"measurement": "macrophage tumor necrosis factor (TNF) expression", "setting": "[3]", "value": "decrease macrophage tumor necrosis factor (TNF) expression"},
      {"measurement": "macrophage-fibroblast cooperation", "setting": "[3]", "value": "enhance macrophage-fibroblast cooperation"},
      {"measurement": "oxidative burst in monocytes", "setting": "[3]", "value": "stimulate an oxidative burst in monocytes"},
      {"measurement": "phagocytosis", "setting": "[3]", "value": "increase phagocytosis"},
      {"measurement": "CD14 cell (macrophage) inflammatory gene expression", "setting": "[4]", "value": "short-term upregulation"},
      {"measurement": "inducible gene expression related to macrophage dependent T-cell activation (IL-2, IL-4, IL-17)", "setting": "[4]", "value": "notable inhibition"},
      {"measurement": "humoral and cellular immune responses", "setting": "[5]; Jerne plaque and footpad swelling tests", "value": "increased both the humoral and cellular immune responses"},
      {"measurement": "proportions of T-helper and T-suppressor/cytotoxic cells", "setting": "[5]; spleen and thymus", "value": "altered proportions of T-helper and T-suppressor/cytotoxic cells"},
      {"measurement": "number of macrophages infiltrating the skin blister", "setting": "[6]", "value": "increased the number of macrophages infiltrating the skin blister"},
      {"measurement": "anti-HIV properties", "setting": "[7]", "value": "displayed anti-HIV properties"},
      {"measurement": "proportion of granulocytes, PBMCs and LGLs", "setting": "[8]", "value": "increased the proportion of granulocytes, peripheral blood monocytes (PBMCs) and large granular lymphocytes (LGLs)"},
      {"measurement": "erythropoiesis", "setting": "[8]; after total body X-irradiation", "value": "stimulated erythropoiesis"},
      {"measurement": "direct antitumor effects", "setting": "[9]", "value": "displayed direct antitumor effects"}
    ]}
  ]
}
